According to patent US20250003953A1, “Methods and Model Systems for Assessing Therapeutic Properties of Candidate Agents and Related Computer Readable Media and Systems” (The Regents of the University of California, priority 2021, published 2025):

How the values were obtained:
[1] = tested on: panel of G12C and non G12C lines pooled in vivo as xenografts; assay: GENEVA combination therapy study in cell line pools in vivo as xenografts; set-up: species or system mouse; conditions: in combination with ARS1620; for drug synergy from cell cycle active/inactive proportions: G12C lines
Procedure: Treatment conditions include Antimycin, ARS1620, Galunisertib, INK128, DMSO, ARS1620+Antimycin, ARS1620+Galunisertib, ARS1620+INK128. FIG. 8B utilizes GENEVA data from FIG. 8A for synergy calculations performed on cell cycle states in each drug condition singly and in combination estimated for G12C lines across drug conditions.
2 mL of Matrigel Basement Membrane reagent was added to the GENEVA pool prepared by growth rate balancing for a final concentration of 20M/mL. One hundred microliters of this solution was injected into NSG mice in a flank xenograft injection. Twenty-four hours later, mice harboring GENEVA tumors were drugged with the drug compound in a vehicle solution of 5% DMSO, 95% Labrasol. Mice were dosed by oral gavage four fourteen days with five days on, two days off. On the fourteenth day, mice were sacrificed, tumors harvested by homogenization with surgical shears and resuspended in 5 mg/mL Liberase™ Cell Dissociation Reagent in 1:1 DMEM: F12 cell media, DNAse I (10 U/uL). Tumors were incubated in a 37° C. incubator with shaking at 600 RPMs for 45 minutes for enzymatic dissociation and then spun down at 800 g for 5 minutes at 4° C. Dissociated tumors were resuspended in 100 uL 1×PBS.
A panel of G12C and non G12C lines pooled in vivo as xenografts was utilized to conduct combination therapy studies comparing ARS1620 with and without Galunisertib, INK128, and Antimycin for a total of eight different treatment conditions; these compounds were taken from our combination therapy discoveries and mechanistic understanding of mitochondrial action of ARS1620 (FIG. 8A).

lipid peroxidation = assay: Lipid peroxidation live cell probe dose curve and survival kinetics; assay type: cell-based; conditions: dose curves
Text: FIG. 7B plots gene expression of anti-ferroptotic genes for each cell line in response to increasing ARS1620 dosage. […] Lipid peroxidation and survival kinetics cross over around IC50 in all compounds indicating ARS1620 performs as a ferroptosis inducing agent.
Among this group of genes were FTH1 and FTL, the two components of the Ferritin Complex, which is responsible for sequestration of labile free iron. Using a lipid peroxidation live cell probe, lipid peroxidation—one of the hallmark phenotypes of ferroptosis—was measured in response to ARS-1620 treatment.

[2] = tested on: H1373 KRAS.G12C mutant line; assay: Multi-arm combination therapy in-vivo mouse study; conditions: in combination with ARS1620; for synergy in tumor growth reduction: compared to null model of independence
Procedure: Bliss drug synergy is plotted and several compounds show significant drug synergy with multiple KRAS.G12C inhibitors.
Using the GENEVA dataset of ARS-1620 in a fourteen day drug treatment timeline in which drug resistance developed, gene expression indicators of resistance mechanisms were obtained (FIG. 4A). […] The strongest GENEVA prediction, mTOR resistance, was tested in a multi-arm in vivo mouse study and significant in vivo Bliss drug synergy and tumor reduction over time was found (FIG. 4C,D).
The GENEVA datasets were compared where GENEVA pools were drugged with the KRAS.G12C inhibitor ARS1620, conducted both in vitro and in vivo. Specifically, the in vitro data were compared against the in vivo data to look for differences and similarities attributable to the context of the model systems used. […] As a validation study, a combination therapy multi-arm in vivo mouse study was designed to test the efficacy of an EMT inhibitor, Galunisertib in combination with ARS1620.

| Compound | drug synergy from cell cycle active/inactive proportions [1] | cross-over of survival and normalized lipid peroxidation curves (lipid peroxidation) | synergy in tumor growth reduction [2] | suppression of tumor growth (relative tumor volume) ([2]; n=4-5 mice per condition) | gene-level synergy on mitochondrial reads (linear model) [1] |
| --- | --- | --- | --- | --- | --- |
| antimycin | antagonistic effect |  |  |  |  |
| CN(C)c1nc(N(C)C)nc(N(C)C)n1 [Altretamine] |  | crossed over around the IC50 survival value |  |  |  |
| Cc1cccc(-c2nn3c(c2-c2ccnc4ccc(C(N)=O)cc24)CCC3)n1 [Galunisertib] | relative in vivo synergy |  | reduce growth synergistically | extremely effective in suppressing tumor growth | further increase the synergistic decrease in mitochondrial reads |
| CC(C)n1nc(-c2ccc3oc(N)nc3c2)c2c(N)ncnc21 [INK128] | relative in vivo synergy |  | synergistically reduce tumor growth in-vivo |  | further increase the synergistic decrease in mitochondrial reads |
